Laboratory results from US6943183B2 (Pfizer Inc, priority 2000, dated 2005).

Molecular target: T1, SF9 affinity purified rat FPT (Rattus norvegicus, UniProt Q02293+Q04631)
T1 construct: made in house; host or cells: Sf9 insect cells
Assay: PFT (FPT) inhibitory activity assay, radiolabeled farnesyl pyrophosphate and biotinyl peptide, streptavidin beads
Assay type: biochemical
Settings: HEPES buffer pH 7.4, 30° C., 30 minutes; read-out: FTase IC50
Protocol: The PFT or FPT inhibitory activity of compounds of the present invention were assayed in HEPES buffer (pH 7.4) containing 5 mM potassium phosphate and 20 μM ZnCl2. The solution also contained 5 mM DTT (dithiothreitol), 5 mM MgCl2, and 0.1% PEG 8000. Assays were performed in 96 well plates (Wallec) and employed solutions composed of varying concentrations of a compound of the present invention in 10% DMSO (dimethylsulfoxide). […] After incubation at 30° C. for 30 minutes, the reaction was terminated by diluting the reaction 2.5-fold with a stop buffer containing 1.5 M magnesium acetate, 0.2 M H3PO4, 0.5% BSA (bovine serum albumin), and strepavidin beads (Amersham) at a concentration of 1.3 mg/mL. […] The assay was also carried out without 5 mM potassium phosphate.

Structure (SMILES) | IC50 [nM]
O=C1CCCc2c1ccc(O[C@H](Cn1ccnc1)c1ccccc1)c2CCc1ccccn1 [Compound 24, 6-((1S)-2-Imidazolyl-1-phenylethoxy)-5-(2-(2-pyridyl)ethyl)-2,3,4-trihydronaphthalen-1-one] | 0.4
O=C1CCCc2c1ccc(O[C@H](Cn1ccnc1)c1ccccc1)c2CCc1cccc[n+]1[O-] [Compound 25, 6-((1S)-2-Imidazolyl-1-phenylethoxy)-5-[2-(1-oxy(2-pyridyl))ethyl]-2,3,4-trihydronaphthalen-1-one] | 5
O=C1CCCc2c1ccc(O[C@H](Cn1ccnc1)c1ccccc1)c2CCc1ccncc1 [Compound 26, 6-((1S)-2-Imidazolyl-1-phenylethoxy)-5-(2-(4-pyridyl)ethyl)-2,3,4-trihydronaphthalen-1-one] | 2
O=C1CCCc2c1ccc(O[C@H](Cn1ccnc1)c1ccccc1)c2CCc1cc[n+]([O-])cc1 [Compound 26a] | 5
O=C1CCCc2c1ccc(O[C@H](Cn1ccnc1)c1ccccc1)c2CCc1cccnc1 [Compound 26b, (S)-6-(-2-imidazol-1-yl-phenyl-ethoxy)-5-(2-pyridin-3-yl-ethyl)-3,4-dihydro-2H-naphthalen-1-one] | 0.85
O=C1CCCc2c1ccc(O[C@H](Cn1ccnc1)c1ccccc1)c2CCc1cncc2ccccc12 [Compound 26c, (S)-6-(-2-Imidazol-1-yl-1-phenyl-ethoxy)-5-(2-isoquinolin-4-yl-ethyl)-3,4-dihydro-2H-naphthalen-1-one] | 0.2
COC(=O)c1ccc(CCc2c(O[C@H](Cn3ccnc3)c3ccccc3)ccc3c2CCCC3=O)cc1 [Compound 27, Methyl 4-(2-[2-((1S)-2-imidazolyl-1-phenylethoxy)-5-oxo-6,7,8-trihydronaphthyl]ethyl}benzoate] | 10
COC(=O)c1ccc(CCc2c(O[C@H](Cn3ccnc3)c3ccccc3)ccc3c2CCCC3=O)cc1 [Compound 28, Methyl 4-{2-[2-((1S)-2-imidazolyl-1-phenylethoxy)-5-oxo-6,7,8-trihydronaphthyl]ethyl}benzoate] | 13
CNC(=O)c1ccc(CCc2c(O[C@H](Cn3ccnc3)c3ccccc3)ccc3c2CCCC3=O)cc1 [Compound 29] | 0.1
O=C1CCCc2c1ccc(O[C@H](Cn1ccnc1)c1ccccc1)c2CCc1ccc(F)cc1 [Compound 30, 6-((1S)-2-Imidazolyl-1-phenylethoxy)-5-[2-(4-fluorophenyl)ethyl]-2,3,4-trihydronaphthalen-1-one] | 0.2
COC(=O)CCc1c(O[C@H](Cn2ccnc2)c2ccccc2)ccc2c1CCCC2=O [Compound 31, Methyl 3-[2-((1S)-2-imidazolyl-1-phenylethoxy)-5-oxo-6,7,8-trihydronaphthyl]propanoate] | 10
O=C(O)CCc1c(O[C@H](Cn2ccnc2)c2ccccc2)ccc2c1CCCC2=O [Compound 32, 3-[2-((1S)-2-Imidazolyl-1-phenylethoxy)-5-oxo-6,7,8-trihydronaphthyl]propanoic acid] | 25
N#Cc1ccc(Cc2c(O[C@H](Cn3ccnc3)c3ccccc3)ccc3c2CCCC3=O)cc1 [Compound 33, 4-{[2-((1S)-2-Imidazolyl-1-phenylethoxy)-5-oxo-6,7,8-trihydronaphthyl]methyl}benzenecarbonitrile] | 4
O=C1CCCc2c1ccc(O[C@H](Cn1ccnc1)c1ccccc1)c2Br [Compound 34, 6-((1S)-2-Imidazolyl-1-phenylethoxy)-5-bromo-2,3,4-trihydronaphthalen-1-one] | 25
O=C1CCCc2c1ccc(O[C@H](Cn1ccnc1)c1ccccc1)c2-c1ccsc1 [Compound 35] | 15
O=C1CCCc2c1ccc(O[C@H](Cn1ccnc1)c1ccccc1)c2-c1ccoc1 [Compound 36] | 7
Nc1c(O[C@H](Cn2ccnc2)c2ccccc2)ccc2c1CCCC2=O [Compound 37a, 5-Amino-6-((S)-2-imidazol-1-yl-1-phenyl-ethoxy)-3,4-dihydro-2H-naphthalen-1-one] | 14
O=C1CCCc2c1ccc(O[C@H](Cn1ccnc1)c1ccccc1)c2NS(=O)(=O)c1ccccc1 [Compound 38, N-[2-((S)-2-Imidazol-1-yl-1-phenyl-ethoxy)-5-oxo-5,6,7,8-tetrahydro-naphthalen-1-yl]-benzenesulfonamide] | 31

Structure (SMILES) | IC50 [nM]
O=C1CCCc2c1ccc(O[C@H](Cn1ccnc1)c1ccccc1)c2NS(=O)(=O)Cc1ccccc1 [Compound 39, N-[2-((S)-2-Imidazol-1-yl-1-phenyl-ethoxy)-5-oxo-5,6,7,8-tetrahydro-naphthalen-1-yl]-1-phenyl-methanesulfonamide] | 1
O=C(Cc1ccccn1)Nc1c(O[C@H](Cn2ccnc2)c2ccccc2)ccc2c1CCCC2=O [Compound 39a, N-[2-((S)-2-Imidazol-1-yl-1-phenyl-ethoxy)-5-oxo-5,6,7,8-tetrahydro-naphthalen-1-yl]-2-pyridin-2-yl-acetamide] | 38
O=C(Nc1c(O[C@H](Cn2ccnc2)c2ccccc2)ccc2c1CCCC2=O)c1ccccn1 [Compound 40, Pyridine-2-carboxylic acid [2-((S)-2-imidazol-1-yl-1-phenyl-ethoxy)-5-oxo-5,6,7,8-tetrahydro-naphthalen-1-yl]-amide] | 7.3
O=C1CCCc2c1ccc(O[C@H](Cn1ccnc1)c1ccccc1)c2NC(=O)c1nccc2ccccc12 [Compound 40a, Isoquinoline-1-carboxylic acid [2-((S)-2-imidazol-1-yl-1-phenyl-ethoxy)-5-oxo-5,6,7,8-tetrahydro-naphthalen-1-yl]-amide] | 0.65
O=C(Nc1c(O[C@H](Cn2ccnc2)c2ccccc2)ccc2c1CCCC2=O)c1cc2ccccc2cn1 [Compound 40b, Isoquinioline-3-carboxylic acid [2-((S)-2-imidazol-1-yl-1-phenyl-ethoxy)-5-oxo-5,6,7,8-tetrahydro-naphthalen-1-yl]-amide] | 6
O=C(Nc1c(O[C@H](Cn2ccnc2)c2ccccc2)ccc2c1CCCC2=O)c1cnccn1 [Compound 40c] | 1.2
O=C1CCCc2c1ccc(O[C@H](Cn1ccnc1)c1ccccc1)c2NC(=O)c1ncoc1-c1ccc(Cl)cc1 [Compound 40d, 5-(4-Chloro-phenyl)-oxazole-4-carboxylic acid [2-((S)-2-imidazol-1-yl-1-phenyl-ethoxy)-5-oxo-5,6,7,8-tetrahydro-naphthalen-1-yl]-amide] | 9
O=C(Nc1c(O[C@H](Cn2ccnc2)c2ccccc2)ccc2c1CCCC2=O)c1cccnc1Cl [Compound 40e, N-[2-((S)-2-Imidazol-1-yl-1-phenyl-ethoxy)-5-oxo-5,6,7,8-tetrahydro-naphthalen-1-yl]-2-chloro-nicotinamide] | 2.5
O=C(Nc1c(O[C@H](Cn2ccnc2)c2ccccc2)ccc2c1CCCC2=O)c1cccnc1Oc1ccccc1 [Compound 40f, N-[2-((S)-2-Imidazol-1-yl-1-phenyl-ethoxy)-5-oxo-5,6,7,8-tetrahydro-naphthalen-4-1-yl]-2-phenoxy-nicotinamide] | 13
O=C1CCCc2c1ccc(O[C@H](Cn1ccnc1)c1ccccc1)c2NC(=O)c1cccc2cccnc12 [Compound 40g, Quinoline-8-carboxylic acid [2-((S)-2-imidazol-1-yl-1-phenyl-ethoxy)-5-oxo-5,6,7,8-tetrahydro-naphthalen-1-yl]-amide] | 0.8
CC(C)(C)OC(=O)NCc1c(O[C@H](Cn2ccnc2)c2ccccc2)ccc2c1CCCC2=O [Compound 41, [2-((S)-2-Imidazol-1-yl-1-phenyl-ethoxy)-5-oxo-5,6,7,8-tetrahydro-naphthalen-1-ylmethyl]-carbamic acid tert-butyl ester] | 14
O=C1CCCc2c1ccc(O[C@H](Cn1ccnc1)c1ccccc1)c2CNS(=O)(=O)c1ccccc1 [Compound 42, N-[2-((S)-2-Imidazol-1-y-1-phenyl-71-ethoxy)-5-oxo-5,6,7,8-tetrahydro-naphthalen-1-ylmethyl]-benzenesulfonamide] | 1.5
COc1ccc(S(=O)(=O)NCc2c(O[C@H](Cn3ccnc3)c3ccccc3)ccc3c2CCCC3=O)cc1 [Compound 42a, N-[2-((S)-2-Imidazol-1-yl-1-phenyl-ethoxy)-5-oxo-5,6,7,8-tetrahydro-naphthalen-1-ylmethyl]-4-methoxy-benzenesulfonamide] | 1.1
O=C1CCCc2c1ccc(O[C@H](Cn1ccnc1)c1ccccc1)c2CNS(=O)(=O)c1ccc(F)cc1F [Compound 42b, 2,4-Difluoro-N-[2-((S)-2-imidazol-1-yl-1-phenyl-ethoxy)-5-oxo-5,6,7,8-tetrahydro-naphthalen-1-ylmethyl]-benzenesulfonamide; compound with trifluoro-acetic acid] | 3.5
COC(=O)c1ccccc1S(=O)(=O)NCc1c(O[C@H](Cn2ccnc2)c2ccccc2)ccc2c1CCCC2=O [Compound 42c] | 3.5
O=C1CCCc2c1ccc(O[C@H](Cn1ccnc1)c1ccccc1)c2CNS(=O)(=O)c1cc(Cl)sc1Cl [Compound 42d, 2,5-Dichloro-thiophene-3-sulfonic acid [2-((S)-2-imidazol-1-yl-1-phenyl-ethoxy)-5-oxo-5,6,7,8-tetrahydro-naphthalen-1-ylmethyl]-amide; compound with trifluoro-acetic acid] | 2
O=C1CCCc2c1ccc(O[C@H](Cn1ccnc1)c1ccccc1)c2CNS(=O)(=O)c1cccc(Cl)c1 [Compound 42e, 3-Chloro-N-[2-((S)-2-imidazol-1-yl-1-phenyl-ethoxy)-5-oxo-5,6,7,8-tetrahydro-naphthalen-1-ylmethyl]-benzenesulfonamide; compound with trifluoro-acetic acid] | 1.5
